# Measurements: publication PMC5556071, “ATR inhibition facilitates targeting of leukemia dependence on convergent nucleotide biosynthetic pathways” (Nature Communications, 2017)
# “And” between values parts separate entries of the source, which are not always exact repeats. Equal entries are not always repeated.
# Legend:
# CEM cells [1] = assay: Cell cycle analysis of asynchronous cells by flow cytometry (S-phase population, S-phase arrest); type: cell-based, human; details: asynchronous CEM, 12 h, VE-822 1 µM, DI-82 1 µM
# Protocol: Cell cycle histograms. Cells were plated at a density of 0.5 x 10^6 cells/mL in respective media or drug treated media. Following 24 h incubation, cells were harvested and washed twice with PBS twice before staining with 0.5 ml of propidium iodide (Calbiochem, #P3566, 1 µg/mL) solution containing Ribonuclease A and 0.3% Triton-X 100. The samples were protected from light before acquisition by flow cytometry.
# Cell cycle kinetics and cell cycle progression by intracellular detection of DNA-incorporated 5-ethynyl-2-deoxyuridine (EdU). CEM T-ALL cells were plated at a density of 0.5 x 10^6 cells/mL. Cells were pulsed with 10 µM EdU (Invitrogen) for 1 h, washed twice with PBS, and released in fresh media containing 5 µM deoxyribonucleosides, with and without drugs. Cells were collected at different time points following release in fresh media, and then fixed with 4% paraformaldehyde and permeabilized using saponin perm/wash reagent (Invitrogen). Cells were then stained with azide-Alexa Fluor 647 by Click reaction according to manufacturer’s protocol (Invitrogen; Click-iT EdU Flow cytometry kit, #C10634). […]
# CEM cells [2] = assay: Targeted LC-MS/MS-MRM of de novo and salvage dCTP biosynthesis (nucleotide pools and newly replicated DNA); type: cell-based, human; set-up: key to Substrate utilization Glucose / Substrate utilization dC: ↓: partial decrease/inhibition; ↓↓↓: nearly complete inhibition; ↑: increase; ⟷: no change
# Protocol: Cells were transferred into RPMI-1640 without glucose and supplemented with 10% dialyzed FBS (Gibco) containing the following labeled substrates: precursors for de novo [U-^13C6]glucose (Sigma-Aldrich, 389374) at 11 mM; precursors for purine salvage [U-^13C10,^15N5]dA (Cambridge Isotopes, CIL 3896), [^15N5]dA (Cambridge Isotopes, NLM-3895) and [^15N5]dG (Cambridge Isotopes, NLM-3899) at 5 µM or as indicated; and precursors for pyrimidine salvage: [U-^13C9,^15N3]dC (Silantes, 124603602) and [U-^13C10,^15N2]dT (Cambridge Isotopes, CNLM-3902) at 5 µM and [^15N2]orotate (Cambridge Isotopes, NLM-1048) at indicated concentrations. The cells were incubated for 12 h or as indicated before sample collection and processing.
# The rates of dCTP incorporation into the DNA were determined using linear regression with procedure GLM in SAS (v. 9.4). DNA % label was transformed using a shifted log addition of 1 due to the presence of zeros in the data set. Rates were calculated using the slope of the regression line for the log transformed data and are presented in the table with the associated standard errors, along with the ratio between the rate of incorporation into DNA by the de novo and salvage pathways (Table 1).
# Cell cycle synchronization. Cells were treated with a CDK4/6 inhibitor, Pablociclib or PD-0332991 (Selleckchem, S1116) for 18 h to synchronize them in the G1 phase. Subsequently, cells were washed twice with PBS containing 2% FBS (Omega Scientific) and released into fresh media. […]
# Clinical Microarray Core on an Illumina HiSeq3000 using the SeqCap EZ Exome Enrichment Kit v3.0 (Roche).
# Reads were mapped to UCSC hg19 (bwa-mem), deduplicaed (PicardTools), and subjected to base quality score recalibration and realignment around known indels according to the Broad Institute Genome Analysis Toolkit (GATK) Best Practices v3.0. Variants in genes associated with nucleotide biosynthesis were identified using the GATK HaplotypeCaller, and annotated with Oncotator (http://portals.broadinstitute.org/oncotator/). dNTP sample processing. 0.5 – 1 x 10^6 cells were collected into 1.5 mL microcentrifuge tubes and centrifuged (450 x g, 4 min, 4 °C). The supernatant was carefully aspirated and the cells were washed twice with 1 mL of cold PBS, followed each time by centrifugation (450 x g, 4 min 4 °C). The PBS were aspirated.
# Thereafter, the pellets were treated with 10 µL of 10% trifluoroacetic acid with internal standards (1 µM […]
# s, and incubated on ice for 10 min. 40 µL of 500 mM ammonium acetate, pH = 9.3, with the same internal standard (1 µM [15N3]dCMP and [15N3]dCTP) was then added and the samples were vigorously vortexed again for 30 s. The samples were centrifuged (14,000 x g, 10 min, 4 °C) to remove cell debris. The supernatants (~ 40 µL) were transferred into HPLC injector vials. Stock solutions (10 mM) of rCTP, rCDP, dCMP, dCDP, and dCTP (Sigma Aldrich) were prepared individually in water, and stored at –20 °C before use to generate calibration standards. Calibration standards were prepared and mixed together in water with internal standards (1 µM [15N3]dCMP and [15N3]dCTP) to make working stock concentrations in 100 nM – 100 µM range.
# Calibration standards were diluted 10-fold into the same nucleotide extraction solution of 10% TFA/500 mM ammonium acetate (1:4, v/v) with internal standards (1 µM [15N3]dCMP and [15N3]dCTP) to give a final concentration in 10 nM – 10 µM. Nucleotide and calibration samples were processed together to minimize […]
# DNA sample processing. Genomic DNA from 0.5 – 1 x 10^4 cells was extracted using the Quick-gDNA MiniPrep kit (Zymo Research, D3021) and hydrolyzed to nucleosides using the DNA Degradase Plus kit (Zymo Research, E2021), following manufacturer-supplied instructions. In the final step of DNA extraction, 50 µL of […]
# water was used to elute the DNA into 1.5 mL microcentrifuge tubes. A nuclease solution (5 µL; 10X buffer/DNA Degradase Plus™/water, 2.5/1/1.5, v/v/v) was added to 20 µL of the eluted genomic DNA in an HPLC injector […]
# vial. […]
# [3] = CEM 12 h, 1 uM VE-822, 1 uM DI-82, 500 nM 3-AP, #1-#3
# [4] = CEM after release from G1 arrest
compound,measurement,setting,value
COc1ccc(-c2nc([C@@H](C)Sc3nc(N)cc(N)n3)c(C)s2)cc1OCCNS(C)(=O)=O [dCKi],percentage of cell population in S-phase,CEM cells [1]; + dNTP (10 µM),31%
same,percentage of cell population in S-phase,CEM cells [1]; – dNTP,30%
same,reduction of the amount of free dCTP,CEM cells [2]; 12 h time point after release from G1 arrest,~ 50%
same,"% sum abundance, de novo DNA-C, mass increase in nucleobase +0, in deoxyribose +3",CEM cells [2]; [3],0.18% and 0.19%
same,"% sum abundance, de novo DNA-C, mass increase in nucleobase +0, in deoxyribose +4",CEM cells [2]; [3],0.58% and 0.55%
same,"% sum abundance, de novo DNA-C, mass increase in nucleobase +0, in deoxyribose +5",CEM cells [2]; [3],9.50% and 9.45% and 9.86%
same,"% sum abundance, de novo DNA-C, mass increase in nucleobase +1, in deoxyribose +3",CEM cells [2]; [3],0.00%
same,"% sum abundance, de novo DNA-C, mass increase in nucleobase +1, in deoxyribose +4",CEM cells [2]; [3],0.09% and 0.07%
same,"% sum abundance, de novo DNA-C, mass increase in nucleobase +1, in deoxyribose +5",CEM cells [2]; [3],1.18% and 1.24%
same,"% sum abundance, de novo DNA-C, mass increase in nucleobase +2, in deoxyribose +4",CEM cells [2]; [3],0.053% and 0.05%
same,"% sum abundance, de novo DNA-C, mass increase in nucleobase +2, in deoxyribose +5",CEM cells [2]; [3],0.82% and 0.79% and 0.87%
same,"% sum abundance, de novo DNA-C, mass increase in nucleobase +3, in deoxyribose +4",CEM cells [2]; [3],0.00%
same,"% sum abundance, de novo DNA-C, mass increase in nucleobase +3, in deoxyribose +5",CEM cells [2]; [3],0.20% and 0.19%
same,"% sum abundance, de novo DNA-C, mass increase in nucleobase +4, in deoxyribose +4",CEM cells [2]; [3],0.00%
same,"% sum abundance, de novo DNA-C, mass increase in nucleobase +4, in deoxyribose +5",CEM cells [2]; [3],0.00%
same,"% sum abundance, salvage DNA-C, mass increase in nucleobase +5, in deoxyribose +0",CEM cells [2]; [3],0.00%
same,"% sum abundance, salvage DNA-C, mass increase in nucleobase +5, in deoxyribose +4",CEM cells [2]; [3],0.00%
same,"% sum abundance, salvage DNA-C, mass increase in nucleobase +5, in deoxyribose +5",CEM cells [2]; [3],0.00%
same,"% sum abundance, salvage DNA-C, mass increase in nucleobase +6, in deoxyribose +0",CEM cells [2]; [3],0.00%
same,"% sum abundance, salvage DNA-C, mass increase in nucleobase +6, in deoxyribose +4",CEM cells [2]; [3],0.00%
same,"% sum abundance, salvage DNA-C, mass increase in nucleobase +6, in deoxyribose +5",CEM cells [2]; [3],0.00%
same,"% sum abundance, salvage DNA-C, mass increase in nucleobase +7, in deoxyribose +0",CEM cells [2]; [3],0.00%
same,"% sum abundance, salvage DNA-C, mass increase in nucleobase +7, in deoxyribose +4",CEM cells [2]; [3],0.00%
same,"% sum abundance, salvage DNA-C, mass increase in nucleobase +7, in deoxyribose +5",CEM cells [2]; [3],0.07% and 0.09% and 0.0853%
same,"% sum abundance, unlabeled DNA-C, mass increase in nucleobase +0, in deoxyribose +0",CEM cells [2]; [3],77.58% and 77.11% and 77.29%
same,"% sum abundance, unlabeled DNA-C, mass increase in nucleobase +0, in deoxyribose +1",CEM cells [2]; [3],4.40% and 4.55% and 4.26%
same,"% sum abundance, unlabeled DNA-C, mass increase in nucleobase +0, in deoxyribose +2",CEM cells [2]; [3],0.75% and 0.68% and 0.59%
same,"% sum abundance, unlabeled DNA-C, mass increase in nucleobase +1, in deoxyribose +0",CEM cells [2]; [3],4.14% and 4.45% and 4.26%
same,"% sum abundance, unlabeled DNA-C, mass increase in nucleobase +1, in deoxyribose +1",CEM cells [2]; [3],0.23% and 0.29% and 0.22%
same,"% sum abundance, unlabeled DNA-C, mass increase in nucleobase +1, in deoxyribose +2",CEM cells [2]; [3],0.00%
same,"% sum abundance, unlabeled DNA-C, mass increase in nucleobase +2, in deoxyribose +0",CEM cells [2]; [3],0.23% and 0.31% and 0.29%
same,"% sum abundance, unlabeled DNA-C, mass increase in nucleobase +2, in deoxyribose +1",CEM cells [2]; [3],0.00%
same,"% sum abundance, unlabeled DNA-C, mass increase in nucleobase +2, in deoxyribose +2",CEM cells [2]; [3],0.00%
same,"% sum abundance, unlabeled DNA-C, mass increase in nucleobase +3, in deoxyribose +0",CEM cells [2]; [3],0.00%
same,"% sum abundance, unlabeled DNA-C, mass increase in nucleobase +3, in deoxyribose +1",CEM cells [2]; [3],0.00%
same,"% sum abundance, unlabeled DNA-C, mass increase in nucleobase +4, in deoxyribose +0",CEM cells [2]; [3],0.00%
same,De novo: rate of dCTP incorporation into newly replicated DNA (slope ± standard error of regression line),CEM cells [2]; [4],0.23 ± 0.01 arbitrary unit
same,Ratio (salvage/de novo),CEM cells [2]; [4],0.082
same,Salvage: rate of dCTP incorporation into newly replicated DNA (slope ± standard error of regression line),CEM cells [2]; [4],0.019 ± 0.004 arbitrary unit
same,"reduction of dCK activity (contribution of labeled [13C9,15N3]dC to intracellular dCMP)","CEM cells [2]; asynchronous CEM, 12 h",~ 90%
same,Substrate utilization Glucose,"CEM cells [2]; summary Fig. 2g, CEM cells",↑
same,Substrate utilization dC,"CEM cells [2]; summary Fig. 2g, CEM cells",↓↓↓
